In ChEMBL document CHEMBL4825725, “Synthesis and interaction of terminal unsaturated chemical probes with Mycobacterium tuberculosis CYP124A1” (Bioorg Med Chem, 2021):
Active and inactive are the calls of the source. No cut-off for these calls is given here.

Columns and labels:
[1] = Binding affinity to Mycobacterium tuberculosis CYP124A1 by UV-visible spectrophotometric analysis; settings: read-out: Kd(app)
[2] = Drug metabolism assessed as Mycobacterium tuberculosis CYP124A1-mediated drug oxidation at 50 to 250 uM in presence of ferridoxin, ferridoxin-NADP+ reductase and NADPH by GC-MS analysis; type: ADME; settings: recombinant enzyme, dose 50-250 µM
[3] = test system: Mycobacterium tuberculosis; assay: Inhibition of Mycobacterium tuberculosis CYP124A1 at 50 uM incubated for 10 mins in presence of ferridoxin, ferridoxin-NADP+ reductase and NADPH by HPLC analysis

Row | Structure (SMILES) | Kd [1] | Drug metabolism [2] | inhibition [3]
1 | CC(C)CCCC(C)CCCC(C)CCCC(C)CC(=O)O (centres undefined) | 0.22 µM |  | 
2 | C=CCOC/C(C)=C/CC/C(C)=C/CC/C(C)=C/CO | 2.9 µM | Metabolite_Notdetected | inactive
3 | C=CCOC/C(C)=C/CC/C(C)=C/CO | 49.4 µM | Metabolite_Notdetected | inactive
4 | C#CCOC/C(C)=C/CC/C(C)=C/CO | 14.6 µM | Metabolite_Notdetected | inactive
5 | CC(C)=CCC/C(C)=C/CC/C(C)=C/CO [FARNESOL] | 1.04 µM |  | 
6 | C#CCOC/C(C)=C/CC/C(C)=C/CC/C(C)=C/CO | 1.5 µM | Metabolite_Notdetected | inactive
